Source: ChEMBL document CHEMBL1139960 (Bioorg Med Chem Lett, 2007)
pIC50: −log10 of the molar value. Calls of active or inactive are those of the source. The rule behind the calls is not given here.

How the values were obtained:
[1] = system: Oocyte; assay: (§1) Antagonist activity at GABAC rho1 receptor expressed in Xenopus laevis oocytes assessed as reduction of GABA-induced chloride ion currents; type: functional, cell-based; details: Homo sapiens
[2] = system: Oocyte; assay: Activity at GABAC rho1 receptor expressed in Xenopus laevis oocytes assessed as activation of GABA-induced chloride ion currents; type: cell-based; details: Homo sapiens
[3] = as §1; type: functional, cell-based; details: Homo sapiens, Oocyte

| SMILES | Activity [1] | Activity [2] | pIC50 [3] |
| --- | --- | --- | --- |
| NCCOP(=O)(O)Cc1ccccc1 | inactive | inactive | – |
| CCCCP(=O)(O)OCCN | – | – | 4.17 |
| CP(=O)(O)C1=CCNCC1 | – | – | 6.17 |
